Laboratory results from patent US20030087844A1, “Ribavirin syrup formulations” (SCHERING CORPORATION, priority 2001, published 2003).

Experiment: Storage stability testing of the syrup at ICH conditions, HPLC assay of ribavirin and degradation products
Assay type: physicochemical
Text: The stability of a syrup formulation of the present invention was compared to conventional liquid formulations that contain ribavirin that are marketed by ICN. Degradation of syrup formulations containing ribavirin is observed during storage stability testing, as is evidenced by declining concentrations of the active ingredient and a concomitant formation of degradates. The most frequent degradation product that has been identified is the carboxylic acid product of ribavirin. Based upon these tests, it is believed that the syrup formulations of the present invention have a shelf life of greater than two years.
This analysis was performed via HPLC methods that are known to one of skill in the art. Stability data was also performed on the formulation of the present invention at 18 months after formulation, and measured by HPLC techniques as known by one of skill in the art as set forth in Table 2 below.
Only results that exceed the limit of quantitation (LOQ) were included in the attached tables. The LOQ of each degradation product is 0.05%. Synthesis-related impurities of ribavirin, the α-anomer and 5′-acetylribavirin, were not degradation products and are not monitored in the drug product. Each degradation product result was rounded to one significant figure according to the rounding convention described in the USP. The results for total degradation products that were derived from the sum of individual degradation products that contain one more significant figure than those shown in the data tables and then rounded to one decimal place.

Measured: ribavirin degradation after storage

NC(=O)c1ncn([C@@H]2O[C@H](CO)[C@@H](O)[C@H]2O)n1 [Ribavirin, 1β-D ribofuranosyl-1H-1,2,4 triazole 3-carboxamide]
did not degrade significantly: 25° C./60% RH, up to 12 months | 30° C./60% RH, up to 12 months | ICH accelerated condition 40° C./75% RH, up to 6 months
